From US20250197403A1, “HETEROARYL COMPOUNDS FOR TREATMENT OF COMPLEMENT FACTOR D MEDIATED DISORDERS” (Achillion Pharmaceuticals, Inc., priority 2020, published 2025)

Target: Human Factor D (Homo sapiens (Human), UniProt P00746)
Assay: Human Factor D Assay
Type: biochemical
Details: Human Factor D 80 nM, substrate Z-L-Lys-SBzl, assay according to Example 3
Description: The assay according to Example 3 was used to determine the IC50's of the compounds. Other standard factor D inhibition assays are also available.
Human Factor D (purified from human serum, Complement Technology, Inc.) at 80 nM final concentration is incubated with test compound at various concentrations for 5 min at room temperature in 50 mM Tris, 1M NaCl, pH 7.5. A synthetic substrate Z-L-Lys-SBzl and DTNB (Ellman's reagent) are added to final concentrations of 100 μM each. Absorbance at 405 nm (A405) is recorded at 30 second intervals for 30 min using a microplate spectrophotometer. IC50 values are calculated by nonlinear regression of complement Factor D reaction rates as a function of test compound concentration.

Chain of Human Factor D (P00746 26-253): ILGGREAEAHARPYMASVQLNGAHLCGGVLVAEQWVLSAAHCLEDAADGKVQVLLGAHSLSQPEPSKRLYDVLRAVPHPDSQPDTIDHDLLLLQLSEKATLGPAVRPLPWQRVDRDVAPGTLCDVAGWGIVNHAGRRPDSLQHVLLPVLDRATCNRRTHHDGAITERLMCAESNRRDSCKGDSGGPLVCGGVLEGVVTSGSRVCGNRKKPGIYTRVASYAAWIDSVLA

**Q.** Which IC50 does the source give for `CC(=O)c1cn(CC(=O)N2[C@H](C(=O)Nc3nc(C(F)(F)F)ccc3C)C[C@@]3(C)C[C@@H]23)c2c(C)cc(-c3ccc4nc(C#N)nn4c3)cc12` [Compound 22, (1R,3S,5R)-2-(2-(3-acetyl-5-(2-cyano-[1,2,4]triazolo [1,5-a]pyridin-6-yl)-7-methyl-1H-indol-1-yl)acet-yl)-5-methyl-N-(3-methyl-6-(trifluoromethyl)pyridin-2-yl)-2-azabicyclo[3.1.0] hexane-3-carboxamide] here?
**A.** The IC50 was under 1 µM.

**Q.** Which IC50 does the source give for `CC(=O)c1cn(CC(=O)N2[C@H](C(=O)Nc3nc(C(F)(F)F)ccc3C#N)C[C@@]3(C)C[C@@H]23)c2c(C)nc(-c3cnc4cc(C)nn4c3)cc12` [Compound 23, (1R,3S,5R)-2-(2-(3-acetyl-7-methyl-5-(2-methylpyr-azolo[1,5-a]pyrimidin-6-yl)-1H-pyrrolo[2,3-c]pyr-idin-1-yl)acetyl)-N-(3-cyano-6-(trifluoromethyl)-pyridin-2-yl)-5-methyl-2-azabicyclo[3.1.0]hexane-3-carboxamide] here?
**A.** The IC50 was under 1 µM.

**Q.** `CC(=O)c1cn(CC(=O)N2[C@H](C(=O)Nc3nc(C(F)(F)F)ccc3Cl)C[C@@]3(C)C[C@@H]23)c2c(C)nc(-c3cnc4cc(C)nn4c3)cc12` [Compound 24, (1R,3S,5R)-2-(2-(3-acetyl-7-methyl-5-(2-methylpyr-azolo[1,5-a]pyrimidin-6-yl)-1H-pyrrolo[2,3-c]pyr-idin-1-yl)acetyl)-N-(3-chloro-6-(trifluoromethyl)-pyridin-2-yl)-5-methyl-2-azabicyclo[3.1.0]hexane-3-carboxamide] was tested. Which IC50 did it give?
**A.** Its IC50 is under 1 µM.

**Q.** `CC(=O)c1cn(CC(=O)N2C[C@@](F)(CF)C[C@H]2C(=O)Nc2nc(C(F)(F)F)ccc2C)c2c(C)nc(-c3cnc4cc(C)nn4c3)cc12` [Compound 25, (2S,4R)-1-(2-(3-acetyl-7-methyl-5-(2-methylpyr-azolo[1,5-a]pyrimidin-6-yl)-1H-pyrrolo[2,3-c]pyr-idin-1-yl)acetyl)-4-fluoro-4-(fluoromethyl)-N-(3-methyl-6-(trifluorometh-yl)pyridin-2-yl)pyrroli-dine-2-carboxamide] was tested. Which IC50 did it give?
**A.** The IC50 was under 1 µM.

**Q.** `CC(=O)c1cn(CC(=O)N2[C@H](C(=O)Nc3nc(Br)ccc3C)C[C@@]3(C)C[C@@H]23)c2ccc(NC3(C)COC3)cc12` [Compound 26, (1R,3S,5R)-2-(2-(3-acetyl-5-((3-methyloxetan-3-yl)-amino)-1H-indol-1-yl)-acetyl)-N-(6-bromo-3-methylpyridin-2-yl)-5-methyl-2-azabicyclo[3.1.0] hexane-3-carboxamide] was tested. Which IC50 did it give?
**A.** The IC50 was under 1 µM.

**Q.** Which IC50 does the source give for `CC(=O)c1cn(CC(=O)N2[C@H](C(=O)N[C@H](C)C(F)=C(C)C)C[C@@]3(C)C[C@@H]23)c2c(C)cc(-c3cnc4cc(C)nn4c3)cc12` [Compound 27, (1R,3S,5R)-2-(2-(3-acetyl-7-methyl-5-(2-methylpyr-azolo[1,5-a]pyrimidin-6-yl)-1H-indol-1-yl)acetyl)-N-((R)-3-fluoro-4-methyl-pent-3-en-2-yl)-5-methyl-2-azabicyclo[3.1.0]hexane-3-carboxamide] here?
**A.** Its IC50 is under 1 µM.

**Q.** `CC(=O)c1cn(CC(=O)N2[C@H](C(=O)N[C@H](C)C(F)=C(C)C)C[C@@]3(C)C[C@@H]23)c2c(C)cc(-c3cnc(C)nc3)cc12` [Compound 28, (1R,3S,5R)-2-(2-(3-acetyl-7-methyl-5-(2-methylpyr-imidin-5-yl)-1H-indol-1-yl)acetyl)-N-((R)-3-fluoro-4-methylpent-3-en-2-yl)-5-methyl-2-azabicyclo[3.1.0] hexane-3-carboxamide] was tested. Which IC50 did it give?
**A.** Its IC50 is under 1 µM.

**Q.** `CC(=O)c1cn(CC(=O)N2[C@H](C(=O)N[C@H](C)C(F)=C(C)C)C[C@@]3(C)C[C@@H]23)c2c(C)nc(-c3cnc4cc(C)nn4c3)cc12` [Compound 29, (1R,3S,5R)-2-(2-(3-acetyl-7-methyl-5-(2-methylpyr-azolo[1,5-a]pyrimidin-6-yl)-1H-pyrrolo[2,3-c]pyr-idin-1-yl)acetyl)-N-((R)-3-fluoro-4-methylpent-3-en-2-yl)-5-methyl-2-azabi-cyclo[3.1.0]hexane-3-car-boxamide] was tested. Which IC50 did it give?
**A.** The IC50 was under 1 µM.

**Q.** With `CC(=O)c1cn(CC(=O)N2[C@H](C(=O)N[C@@H](C)C(F)=C(C)C)C[C@@]3(C)C[C@@H]23)c2c(C)cc(-c3cnc4cc(C)nn4c3)cc12` [Compound 30, (1R,3S,5R)-2-(2-(3-acetyl-7-methyl-5-(2-methylpyr-azolo[1,5-a]pyrimidin-6-yl)-1H-indol-1-yl)acetyl)-N-((S)-3-fluoro-4-methyl-pent-3-en-2-yl)-5-methyl-2-azabicyclo[3.1.0]hexane-3-carboxamide] as the compound, how does the IC50 read?
**A.** Its IC50 is under 1 µM.

**Q.** How did the IC50 turn out when `CC(=O)c1cn(CC(=O)N2[C@H](C(=O)N[C@@H](C)C(F)=C(C)C)C[C@@]3(C)C[C@@H]23)c2c(C)cc(-c3cnc(C)nc3)cc12` [Compound 31, (1R,3S,5R)-2-(2-(3-acetyl-7-methyl-5-(2-methylpyr-imidin-5-yl)-1H-indol-1-yl)acetyl)-N-((S)-3-fluoro-4-methylpent-3-en-2-yl)-5-methyl-2-azabicyclo[3.1.0] hexane-3-carboxamide] was run?
**A.** The IC50 was under 1 µM.

**Q.** `CC(=O)c1cn(CC(=O)N2[C@H](C(=O)N[C@@H](C)C(F)=C(C)C)C[C@@]3(C)C[C@@H]23)c2c(C)nc(-c3cnc4cc(C)nn4c3)cc12` [Compound 32, (1R,3S,5R)-2-(2-(3-acetyl-7-methyl-5-(2-methylpyr-azolo[1,5-a]pyrimidin-6-yl)-1H-pyrrolo[2,3-c]pyr-idin-1-yl)acetyl)-N-((S)-3-fluoro-4-methylpent-3-en-2-yl)-5-methyl-2-azabi-cyclo[3.1.0]hexane-3-car-boxamide] was tested. Which IC50 did it give?
**A.** Its IC50 is under 1 µM.

**Q.** With `CC(=O)c1cn(CC(=O)N2C[C@@](F)(CF)CC2C(=O)Nc2nc(C(F)(F)F)ccc2C#N)c2c(C)nc(-c3cnc4cc(C)nn4c3)cc12` (stereo partly drawn) [Compound 33, (4R)-1-(2-(3-acetyl-7-methyl-5-(2-methylpyr-azolo[1,5-a]pyrimidin-6-yl)-1H-pyrrolo[2,3-c]pyr-idin-1-yl)acetyl)-N-(3-cyano-6-(trifluoromethyl)-pyridin-2-yl)-4-fluoro-4-(fluoromethyl)pyrrolidine-2-carboxamide] as the compound, how does the IC50 read?
**A.** The IC50 was under 1 µM.

**Q.** `CC(=O)c1cn(CC(=O)N2C[C@H](F)C[C@H]2C(=O)N[C@H](C)C(F)=C(C)C)c2c(C)cc(-c3cnc4cc(C)nn4c3)cc12` [Compound 34, (2S,4R)-1-(2-(3-acetyl-7-methyl-5-(2-methylpyr-azolo[1,5-a]pyrimidin-6-yl)-1H-indol-1-yl)acetyl)-4-fluoro-N-((R)-3-fluoro-4-methylpent-3-en-2-yl)-pyrrolidine-2-carboxamide] was tested. Which IC50 did it give?
**A.** Its IC50 is under 1 µM.

**Q.** For `CC(=O)c1cn(CC(=O)N2C[C@H]3C[C@H]3[C@H]2C(=O)N[C@H](C)C(F)=C(C)C)c2c(C)cc(-c3cnc4cc(C)nn4c3)cc12` [Compound 35, (1R,2S,5S)-3-(2-(3-acetyl-7-methyl-5-(2-methylpyr-azolo[1,5-a]pyrimidin-6-yl)-1H-indol-1-yl)acetyl)-N-((R)-3-fluoro-4-methyl-pent-3-en-2-yl)-3-azabi-cyclo[3.1.0]hexane-2-car-boxamide], which IC50 is on record?
**A.** The IC50 was under 1 µM.

**Q.** How did the IC50 turn out when `CC(=O)c1cn(CC(=O)N2[C@H](C(=O)N[C@H](C)C(F)=C(C)C)C[C@@]3(C)C[C@@H]23)c2c(C)nc(-c3cnc(C)nc3)cc12` [Compound 36, (1R,3S,5R)-2-(2-(3-acetyl-7-methyl-5-(2-methylpyr-imidin-5-yl)-1H-pyrrolo [2,3-c]pyridin-1-yl)acetyl)-N-((R)-3-fluoro-4-methyl-pent-3-en-2-yl)-5-methyl-2-azabicyclo[3.1.0]hexane-3-carboxamide] was run?
**A.** The IC50 was under 1 µM.
